Measured values reported in US20210187488A1, “A METHOD OF SYNTHESISING A PT(II) COMPLEX; A PT(II) COMPLEX; USE OF SUCH A COMPLEX AS A PHOTOACTIVATABLE CATALYST IN A HYDROSILYLATION REACTION” (JOHNSON MATTHEY PUBLIC LIMITED COMPANY, priority 2017, published 2021).

Key:
[1] = Catalytic activity: time until gelling of siloxane composition after 60 s UV irradiation or in the dark; conditions: for Gelling time: 60 s UV
Method: The product of Example 3 was tested for catalytic activity.
5 mg of the product was dissolved in 1 mL dichloromethane to provide a solution (‘Solution A’).
The following ingredients were added to a UV-grade plastic cuvette: • vinyl terminated polydimethyl siloxane 100 cSt DMS V21 (2g); • (45-55% methylhydrosiloxane)dimethylsiloxane copolymer 10-15 cSt HMS-501 (0.108 mL); • Solution A (25 μL).
The contents of the cuvette were stirred briefly with a spatula to ensure thorough mixing and a 10 mm magnetic flea was added, before sealing with parafilm.
The cuvette was placed in a UV-lamp box. The positioning of samples in the box was kept the same throughout testing (154 mm from ground to top of cuvette; 114 mm between end of housing and front of cuvette).
A 300 W ozone-free Xenon lamp was used (visible to 300 nm). A water-cooled filter removes some of the visible spectrum.
The stirrer speed was set to the 12 o'clock position and the lamp was switched on for 60 seconds only. The time taken from the switching on of the lamp to the stirrer no longer being able to complete a turn was noted as a measure of activity.
Results are provided in the Table below. ‘Irradiated’ indicates samples exposed to the 60 s UV radiation. ‘Dark’ indicates samples left in darkness without any irradiation.
(§1) All other aspects of the test were the same as Example 16. The results reflect gelling time after the 60 s UV irradiation.
The testing was done as in Example 16, except that in the initial step the following four solutions were prepared:
Different amounts of the respective solutions, as shown in the Tables below, were added to the cuvette but all other aspects of the test were the same as Example 16.
as §1

[2] = Stability in dichloromethane during crystal growth; assay type: physicochemical; conditions: dichloromethane (DCM/hexane crystal growth, one week)
Source text: The following different methods were attempted in order to provide suitable crystals for testing. • 1. Growth in acetone/water medium. […] Growth in DCM/hexane. This formed two distinct layers with slow mixing occurring at the interface. […] Growth in chloroform/hexane. This formed two distinct layers with slow mixing occurring at the interface. Slightly larger crystals were formed, but still too small. It took longer for the product to turn brown. • 4. Growth in chloroform: The product was dissolved in chloroform with heating, and immediately filtered before being stored in the freezer. Needle like crystals were formed • 5. Growth in chloroform/hexane in freezer. Needle like crystals were formed

[3] = Thermogravimetric analysis (thermal stability); assay type: physicochemical; conditions: TGA
Source text: (which is the boiling point for salicylaldehyde). Above this temperature the ligand is lost, leaving behind the platinum metal.

[4] = Solubility in various solvents, Pt content by ICP-AES; assay type: physicochemical; conditions: 10 mg in 1 mL, room temperature, 3 h, filtered
Method: The solubility of the product of Example 3 was tested in various solvents.
In each case, 10 mg of the complex was stirred in 1 mL of each solvent at room temperature for three hours. The solvent was then filtered. One hundred fold dilutions of the samples into methoxypropanol were then carried out and Pt content was determined by ICP-AES using a Spectro Ciros Vision ICP-OES. Yttrium was employed as an internal standard at a concentration of 5 ppm.

[5] = Qualitative solubility observations; assay type: physicochemical
Method: Stirring was continued at room temperature for 2 hours. […] The precipitate was washed with water and diethylether.
An excess of salicylaldehyde (2 mL, 2.28 g, 18.62 mmol) in EtOH (20 mL) was added and the reaction mixture was heated at 73° C. overnight.
Five different samples were studied: • 1. Vinyl-terminated polydimethylsiloxane 100 cSt • 2.

[6] = Catalytic activity of comparative products in gelling of a siloxane polymer
Method: The brown solution gave an orange oil which was tested for catalytic activity in gelling of a siloxane polymer.
A 16.13 wt % aqueous solution of Pt(IV) nitrate (2.624 g, 2.17 mmol) was added to deionised water (50 mL) and a mixture of salicylaldehyde (2.45 mL, 2.8 g, 22.8 mmol) and NaHCO3 (0.765 g, 9.12 mmol) in EtOH (15 mL) was then added. The reaction mixture gave off gas and produced an orange precipitate. Stirring was continued at room temperature for 2 hours. The reaction mixture was then filtered to give an orange precipitate and an orange solution. The precipitate was washed with water and diethylether. […] The product was tested for catalytic activity but none was found. […] The major product appeared to be Pt^IV(HCO3)4.

[7] = ECHA (European Chemicals Agency) website; cited from earlier work
[8] = 25 μL of toluene solution, 1.77 mM
[9] = 50 μL of toluene solution, 1.77 mM
[10] = 75 μL of toluene solution, 1.77 mM
[11] = 200 μL of toluene solution, 1.77 mM
[12] = 360 μL of toluene solution, 1.77 mM

Which Gelling time [1, 8] does the source give for `CC(=O)/C=C(/C)O.CC(=O)/C=C(/C)O.[Pt]` [Solution E, Pt(acac)2] here?
The Gelling time was 3544 s.

What about the Gelling time [1, 9] of the same molecule?
The Gelling time was 1350 s.

And the Gelling time [1, 10]?
Its Gelling time is 938 s.

And the Gelling time ([1]; 100 μL of toluene solution, 1.77 mM)?
Its Gelling time is 793 s.

And the Gelling time [1, 11]?
Its Gelling time is 551 s.

What about the Gelling time [1, 12] of the same molecule?
Its Gelling time is 486 s.

With Pt(sal)2 [Solution D] as the molecule, how does the Gelling time [1, 8] read?
Its Gelling time is 1263 s.

What about the Gelling time [1, 9] of the same molecule?
Its Gelling time is 627 s.

And the Gelling time [1, 10]?
Its Gelling time is 415 s.

What about the Gelling time [1, 11] of the same molecule?
The Gelling time was 231 s.

What about the Gelling time [1, 12] of the same molecule?
Its Gelling time is 126 s.

For Pt(sal)2 [Example 3], which Stability in solvent [2] is on record?
Its Stability in solvent is “not completely stable”.

And the “Thermal stability, stable up to” value [3]?
The value was “up to 200 °C”.

And the Time until gelling ([1]; dark, no irradiation, 25 μL of 5 mg in 1 mL dichloromethane)?
Its Time until gelling is 13,500 s.

And the Time until gelling ([1]; irradiated (60 s UV), 25 μL of 5 mg in 1 mL dichloromethane)?
Its Time until gelling is 165 s.

And the Pt concentration ([4]; Acetone:MeCN (1:1))?
Its Pt concentration is 698 mg/L.

And the Pt concentration ([4]; Acetone)?
The Pt concentration was 646 mg/L.

What about the Pt concentration ([4]; Chloroform) of the same molecule?
The Pt concentration was 3260 mg/L.

And the Pt concentration ([4]; EtOH)?
The Pt concentration was 103 mg/L.

And the Pt concentration ([4]; IPA)?
Its Pt concentration is 43.4 mg/L.

And the Pt concentration ([4]; MIBK)?
Its Pt concentration is 369 mg/L.

And the Pt concentration ([4]; MeCN:DMSO (80:20))?
Its Pt concentration is 1220 mg/L.

And the Pt concentration ([4]; MeCN)?
Its Pt concentration is 588 mg/L.

And the Pt concentration ([4]; Toluene)?
Its Pt concentration is 346 mg/L.

What about the Pt concentration ([4]; Water:MeCN (1:1)) of the same molecule?
The Pt concentration was 167 mg/L.

And the Pt concentration ([4]; Water)?
Its Pt concentration is 42.1 mg/L.

With Pt(sal)2 [Example 9] as the molecule, how does the Solubility ([5]; MeOH (washing)) read?
The Solubility was “only very slightly soluble”.

With Pt(sal)2 [Example 7] as the molecule, how does the Time until gelling ([1]; after 60 s UV irradiation, 11 mg in 1 mL dichloromethane) read?
Its Time until gelling is 208 s.

With Pt(sal)2 [Example 1] as the molecule, how does the “Solubility (note on sample)” value ([5]; 1 mg/mL in acetone) read?
Its value is “saturated solution, prone to some precipitation”.

What about the “Solubility (note on sample)” value ([5]; 1 mg/mL in vinyl-terminated polydimethylsiloxane) of the same molecule?
Its value is “poor solubility, solution very cloudy and prone to precipitation”.

For `O=C([O-])O.O=C([O-])O.O=C([O-])O.O=C([O-])O.[Pt+4]` [Comparative Example 6, Pt^IV(HCO3)4], which Catalytic activity [6] is on record?
Its Catalytic activity is “none”.

With `CC(=O)/C=C(/C)O.CC(=O)/C=C(/C)O.[Pt]` [Solution C, Pt(acac)2] as the molecule, how does the Gelling time ([1]; 25 μL of DCM solution, 14.4 mM) read?
Its Gelling time is 1234 s.

What about the Gelling time ([1]; 50 μL of DCM solution, 14.4 mM) of the same molecule?
Its Gelling time is 719 s.

What about the Gelling time ([1]; 75 μL of DCM solution, 14.4 mM) of the same molecule?
Its Gelling time is 506 s.

And the Gelling time ([1]; 100 μL of DCM solution, 14.4 mM)?
Its Gelling time is 535 s.

For `CC1=[C-]CC=C1.[CH3-].[CH3-].[CH3-].[Pt+4]` [(MeCp)PtMe3], which Hazard classification [7] is on record?
The Hazard classification was “fatal if swallowed, fatal in contact with skin, very toxic to aquatic life, causes serious eye irritation, may cause an allergic skin reaction, causes skin irritation and may cause respiratory irritation”.
